Results as given in patent US10508090B2, “Sulfonamides as GPR40- and GPR120-agonists” (DOMPÉ FARMACEUTICI S.P.A., priority 2016, dated 2019).

Tests used:
[1] = target: T1, human GPR120 (Homo sapiens, UniProt Q5NUL3); assay: In vitro Ca2+ mobilization, CHO-k1 cells stably expressing human GPR120; format: cell-based; settings: for AC50: intracellular calcium, CHO-k1 cells expressing human GPR120, read-out: Ca2+ hGPR120 AC50
T1 construct: expressed in transfected cells; host or cells: CHO-k1
T1 sequence (Q5NUL3 1-361): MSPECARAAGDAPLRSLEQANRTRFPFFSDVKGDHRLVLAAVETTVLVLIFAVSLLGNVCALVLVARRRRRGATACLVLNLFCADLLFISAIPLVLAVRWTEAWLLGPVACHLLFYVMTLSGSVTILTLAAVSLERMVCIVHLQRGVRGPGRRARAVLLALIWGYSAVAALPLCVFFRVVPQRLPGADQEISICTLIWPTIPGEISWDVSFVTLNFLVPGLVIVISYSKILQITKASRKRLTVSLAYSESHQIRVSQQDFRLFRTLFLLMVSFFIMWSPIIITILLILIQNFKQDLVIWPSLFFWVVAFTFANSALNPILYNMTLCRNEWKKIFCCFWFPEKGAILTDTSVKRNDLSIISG
Procedure: (§1) GPR120/40 Activation: In Vitro Ca^2+ Mobilization
(§2) The activation of GPR120/40 by all compounds was determined by measuring changes in intracellular calcium levels using a Ca^2+ sensitive fluorescent dye.
(§3) The experiments were performed using CHO-k1 cells stably expressing the human GPR120 or GPR40. Cells were seeded 10000 cells/well in 384-plates in complete medium and grown overnight at 37° C., 5% CO2. 24 h after seeding, cell culture media was removed and cells were loaded with the fluorescent Ca^2+ indicator (Fluo-8 NW dye in Tyrode's buffer). Dye-loaded cell plates were incubated for 1 h at room temperature under a yellow light sodium lamp.
(§4) Cell were treated with test compounds and controls at 10, 30 and 60 μM. The kinetic response was monitored over a period of 7 minutes (using FLIPRTETRA system). A second injection of 3× concentrated reference agonist at ˜EC50 were then administered to cells and the signal of the emitted fluorescence was measured over a period of additional 3 minutes. The agonist effect is expressed as a percentage of activation, with 100% activation being a result in which the Response Values of the test wells reach a level identical to the one of the Stimulator Controls (alpha linolenic acid reference agonist EC100). 0% activation is a result in which the Response Values of the test wells reach a level identical to the one of the Neutral Controls (assay buffer) in the AGO_KRV (Agonist Kinetic Response Value) response value.

[2] = target: T2, human GPR40 (Homo sapiens, UniProt O14842); assay: In vitro Ca2+ mobilization, CHO-k1 cells stably expressing human GPR40; format: cell-based; settings: for AC50: read-out: Ca2+ hGPR40 AC50
T2 construct: expressed in transfected cells; host or cells: CHO-k1
T2 sequence (O14842 whole entry): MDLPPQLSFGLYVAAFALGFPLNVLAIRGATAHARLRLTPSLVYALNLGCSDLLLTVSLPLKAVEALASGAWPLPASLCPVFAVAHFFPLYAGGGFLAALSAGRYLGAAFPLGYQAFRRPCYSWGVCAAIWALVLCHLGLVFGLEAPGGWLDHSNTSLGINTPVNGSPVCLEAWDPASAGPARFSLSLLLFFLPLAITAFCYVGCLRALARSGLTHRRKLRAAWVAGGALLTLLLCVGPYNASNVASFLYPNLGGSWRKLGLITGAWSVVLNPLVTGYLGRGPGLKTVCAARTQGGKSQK
Procedure: as §1, §2, §3, §4

[3] = tested on: STC-1 cells; assay: In vitro GLP-1 secretion in STC-1 cells (ELISA); format: cell-based, murine; settings: for fold induction at 30 µM: Mus musculus, STC-1, 0.5 h, read-out: GLP-1 RELEASE STC-1, fold of increase over DMSO
Procedure: (§5) GPR120/40 Activation: In Vitro GLP-1 Secretion
(§6) 2×10^5 STC-1 cells were seeded in a 12-plate and 24 hours later were treated with selected compounds. 1×10^6 NCI-H716 cells were differentiated in matrigel-coated 12-plate and treated 48 h hours later.
(§7) The day of the experiment, wells were washed once with 1 ml of PBS and then cells were stimulated with 0.5 ml of DMEM (w/o serum, w/o phenol-red) containing 30 μM of selected compounds in STC1 and 100 μM in differentiated NCIH716 for 30 minutes. DMSO has been used as negative control, α-linolenic acid (ALA) (endogenous agonist) as positive control. After stimulations, supernatants were collected, centrifuged at 4000 rpm for 4′ at 4° C., and used for the GLP1 detection by ELISA.

[4] = tested on: NCI-H716 cells; assay: In vitro GLP-1 secretion in differentiated NCI-H716 cells (ELISA); format: cell-based, human; settings: for fold induction at 100 µM: Homo sapiens, NCI-H716, 0.5 h, compound at 100 μM for 30 minutes, differentiated NCI-H716 cells, read-out: GLP-1 RELEASE NCI, fold of increase over DMSO
Procedure: as §5, §6, §7

[5] = intracellular calcium, CHO-k1 cells expressing human GPR40
[6] = compound at 30 μM for 30 minutes, STC-1 cells

| SMILES | AC50 [1] [µM] | AC50 [2, 5] [µM] | agonistic activity on GPR120 (AC50 in the calcium mobilization assay), in words [1] | agonistic activity on GPR40 (AC50 in the calcium mobilization assay), in words [2] | Ca2+ hGPR40 AC50 [2, 5] | fold induction at 30 µM [3, 6] | fold induction at 100 µM [4] | GLP-1 secretion in STC1 (murine) cells, in words [3] | GLP-1 secretion in NCI-H716 (human) cells, in words [4] | GLP-1 RELEASE STC-1, fold of increase over DMSO [3, 6] [fold] |
| --- | --- | --- | --- | --- | --- | --- | --- | --- | --- | --- |
| Cc1nc(NS(=O)(=O)c2cccc(CCCCCCC(=O)O)c2)sc1C [Example 14, 7-(3-(N-(4,5-dimethylthiazol-2-yl)sulfamoyl)phenyl)heptanoic acid] | 17.4 | 20.8 |  |  |  | 1.37 ± 0.11 | 1.81 ± 0.67 |  |  |  |
| Cc1cc(F)cc(C)c1C(=O)NS(=O)(=O)c1cccc(CCCCCCC(=O)O)c1 [Example 24, 7-{3-[(4-fluoro-2,6-dimethylbenzoyl)sulfamoyl]phenyl}heptanoic acid] | 5.9 | 13.3 |  |  |  | 4.19 ± 0.72 | 5.01 ± 0.99 |  |  |  |
| O=C(O)CCCCCCc1cccc(S(=O)(=O)Nc2cccc3c(O)cccc23)c1 [Example 23, 7-{3-[(5-hydroxynaphthalen-1-yl)sulfamoyl]phenyl}heptanoic acid] | 7.1 | 8.2 |  |  |  | 4.34 ± 0.51 | 4.69 ± 0.41 |  |  |  |
| CC/C=C\C/C=C\C/C=C\CCCCCCCC(=O)O [ALA, α-linolenic acid, reference compound] |  |  |  |  |  | 6.61 | 1.52 |  |  |  |
| Cc1noc(C)c1NS(=O)(=O)c1cccc(CCCCCCC(=O)O)c1 [Example 19, 7-(3-(N-(3,5-dimethylisoxazol-4-yl)sulfamoyl)phenyl)heptanoic acid] | 17.6 | 12.1 |  |  |  | 2.57 ± 0.56 | 2.24 ± 0.39 |  |  |  |
| Cc1nnc(NS(=O)(=O)c2cccc(CCCCCCC(=O)O)c2)[nH]1 [Example 20, 7-(3-(N-(5-methyl-4H-1,2,4-triazol-3-yl)sulfamoyl)phenyl)heptanoic acid] | 6.5 | 8.2 |  |  |  | 3.36 ± 0.37 | 3.31 ± 0.28 |  |  |  |
| O=C(O)CCCCCCc1cccc(S(=O)(=O)Nc2csnc2-c2ccccc2)c1 [Example 30, 7-(3-(N-(3-phenylisothiazol-4-yl)sulfamoyl)phenyl)heptanoic acid] | 37.1 | 31.2 |  |  |  | 2.94 ± 1.12 | 2.13 ± 1.83 |  |  |  |
| Cc1cc(C(F)(F)F)cc(C)c1NS(=O)(=O)c1cccc(CCCCCCC(=O)O)c1 [Example 6, 7-(3-(N-(2,6-dimethyl-4-(trifluoromethyl)phenyl)sulfamoyl)phenyl)heptanoic acid] | 6 | 11.7 | low microMolar range | low microMolar range |  | 4.2 ± 0.45 | 2.54 ± 0.52 | efficacious | efficacious |  |
| COc1cc(C)c(NS(=O)(=O)c2cccc(CCCCCCC(=O)O)c2)c(C)c1 [Example 8, 7-(3-(N-(4-methoxy-2,6-dimethylphenyl)sulfamoyl)phenyl)heptanoic acid] | 11.7 | 4.7 |  |  |  | 1.7 ± 0.12 | 2.1 ± 0.08 |  |  |  |
| Cc1cc(-c2ccccc2)cc(C)c1NS(=O)(=O)c1cccc(CCCCCCC(=O)O)c1 [Example 32, 7-(3-(N-(3,5-dimethyl-[1,1′-biphenyl]-4-yl)sulfamoyl)phenyl)heptanoic acid] | 11.1 | 23.7 |  |  |  | 3.67 ± 0.9 | 4.51 ± 0.59 |  |  |  |

The next lines start with results.

| AC50 [1] [µM] | AC50 [2, 5] [µM] | agonistic activity on GPR120 (AC50 in the calcium mobilization assay), in words [1] | agonistic activity on GPR40 (AC50 in the calcium mobilization assay), in words [2] | Ca2+ hGPR40 AC50 [2, 5] | SMILES | fold induction at 30 µM [3, 6] | fold induction at 100 µM [4] | GLP-1 secretion in STC1 (murine) cells, in words [3] | GLP-1 secretion in NCI-H716 (human) cells, in words [4] | GLP-1 RELEASE STC-1, fold of increase over DMSO [3, 6] [fold] |
| --- | --- | --- | --- | --- | --- | --- | --- | --- | --- | --- |
| 22.3 | 13.9 |  |  |  | Cc1nsc(NS(=O)(=O)c2cccc(CCCCCCC(=O)O)c2)n1 [Example 17, 7-(3-(N-(3-methyl-1,2,4-thiadiazol-5-yl)sulfamoyl)phenyl)heptanoic acid] | 1.9 ± 0.51 | 2.19 ± 1.22 |  |  |  |
| 18.9 | 20.1 |  |  |  | CCn1ncc(NS(=O)(=O)c2cccc(CCCCCCC(=O)O)c2)n1 [Example 26, 7-(3-(N-(2-ethyl-2H-1,2,3-triazol-4-yl)sulfamoyl)phenyl)heptanoic acid] | 1.82 ± 0.41 | 2.81 ± 0.72 |  |  |  |
| 6.2 |  | low microMolar range | low microMolar range | Inactive | Cc1cc(C)c(NS(=O)(=O)c2cccc(CCCCCC(=O)O)c2)c(C)c1 [Example 11, 6-{3-[(2,4,6-trimethylphenyl)sulfamoyl]phenyl}hexanoic acid] | 1.71 ± 0.21 | 1.87 ± 0.27 | efficacious | efficacious |  |
| 16.5 | 12.8 | low microMolar range | low microMolar range |  | Cc1cc(F)cc(-c2ccccc2)c1NS(=O)(=O)c1cccc(CCCCCCC(=O)O)c1 [Example 10, 7-(3-(N-(5-fluoro-3-methyl-[1,1′-biphenyl]-2-yl)sulfamoyl)phenyl)heptanoic acid] | 4.7 | 2.5 | efficacious | efficacious |  |
| 4.3 | 6.1 |  |  |  | Cc1cc(F)cc(C)c1NS(=O)(=O)c1ccc(CCCCCCC(=O)O)cc1 [Example 25, 7-{4-[(4-fluoro-2,6-dimethylphenyl)sulfamoyl]phenyl}heptanoic acid] | 4.1 ± 0.78 | 3.2 ± 0.31 |  |  |  |
| 7.09 | 11.2 | low microMolar range | low microMolar range |  | Cc1cc(C)c(CNS(=O)(=O)c2cccc(CCCCCCC(=O)O)c2)c(C)c1 [Example 2, 7-(3-(N-(2,4,6-trimethylbenzyl)sulfamoyl)phenyl)heptanoic acid] | 3.2 ± 0.47 | 2.1 ± 0.52 | efficacious | efficacious |  |
| 10.2 | 11.7 |  |  |  | O=C(O)CCCCCCc1cccc(S(=O)(=O)Nc2cc(-c3ccccc3)ns2)c1 [Example 22, 7-(3-(N-(3-phenylisothiazol-5-yl)sulfamoyl)phenyl)heptanoic acid] | 3.13 ± 1.26 | 3.71 ± 0.67 |  |  |  |
| 25.9 | 17.2 |  |  |  | O=C(O)CCCCCCc1cccc(S(=O)(=O)Nc2nsc(-c3ccccc3)n2)c1 [Example 16, 7-(3-(N-(5-phenyl-1,2,4-thiadiazol-3-yl)sulfamoyl)phenyl)heptanoic acid] | 1.31 ± 0.32 | 1.69 ± 0.14 |  |  |  |
| 13.1 | 10.7 |  |  |  | Cc1n[nH]c(C)c1NS(=O)(=O)c1cccc(CCCCCCC(=O)O)c1 [Example 12, 7-(3-(N-(3,5-dimethyl-1H-pyrazol-4-yl)sulfamoyl)phenyl)heptanoic acid] | 1.04 ± 0.32 | 1.41 ± 0.36 |  |  |  |
| 11.2 | 8.9 | low microMolar range | low microMolar range |  | Cc1cc(F)c(-c2ccccc2)cc1NS(=O)(=O)c1cccc(CCCCCCC(=O)O)c1 [Example 9, 7-(3-(N-(6-fluoro-4-methyl-[1,1′-biphenyl]-3-yl)sulfamoyl)phenyl)heptanoic acid] | 14.5 | 6.2 | efficacious | efficacious | 14.5 ± 1.24 |
